In patent publication US9181277B2, “Aminoquinazoline derivatives and their salts and methods of use” (SUNSHINE LAKE PHARMA CO., LTD., priority 2011, dated 2015):

These molecules were tested against EGFR Kinase (Homo sapiens, UniProt P00533) (assay: EGFR inhibitory activity test (HTRF kinEASE STK S1 kinase assay)). Details: replicate wells, read-out: IC50(nM), Inhibitory Activity of Compounds on EGFR Kinase.
Format: biochemical
Procedure: In a pilot study, the compounds disclosed herein were screened for their EGFR inhibitory activity. The Cisbio Research Product HTRF kinEASE STK S1 kinase assay/inhibitor screening Kit, can detect the generation of the phosphorylated substrate. Kinase, biotinylated substrate and ATP were first added into buffer solution, and the phosphorylated biotinylated substrates were formed by enzyme reaction. Then, to the above solution was added europium-labeled anti-phospho-site specific antibodies and XL665-labeled avidin. The Specific combinations of antibody with antigen, and biotin with avidin, bring the europium and XL665 closer together and resonance energy transferred. The signals at 620 nm and 665 nm were detected, and the activity of the kinase was evaluated by the ratio of the two signals value.

Sequence of EGFR Kinase (P00533 25-1210): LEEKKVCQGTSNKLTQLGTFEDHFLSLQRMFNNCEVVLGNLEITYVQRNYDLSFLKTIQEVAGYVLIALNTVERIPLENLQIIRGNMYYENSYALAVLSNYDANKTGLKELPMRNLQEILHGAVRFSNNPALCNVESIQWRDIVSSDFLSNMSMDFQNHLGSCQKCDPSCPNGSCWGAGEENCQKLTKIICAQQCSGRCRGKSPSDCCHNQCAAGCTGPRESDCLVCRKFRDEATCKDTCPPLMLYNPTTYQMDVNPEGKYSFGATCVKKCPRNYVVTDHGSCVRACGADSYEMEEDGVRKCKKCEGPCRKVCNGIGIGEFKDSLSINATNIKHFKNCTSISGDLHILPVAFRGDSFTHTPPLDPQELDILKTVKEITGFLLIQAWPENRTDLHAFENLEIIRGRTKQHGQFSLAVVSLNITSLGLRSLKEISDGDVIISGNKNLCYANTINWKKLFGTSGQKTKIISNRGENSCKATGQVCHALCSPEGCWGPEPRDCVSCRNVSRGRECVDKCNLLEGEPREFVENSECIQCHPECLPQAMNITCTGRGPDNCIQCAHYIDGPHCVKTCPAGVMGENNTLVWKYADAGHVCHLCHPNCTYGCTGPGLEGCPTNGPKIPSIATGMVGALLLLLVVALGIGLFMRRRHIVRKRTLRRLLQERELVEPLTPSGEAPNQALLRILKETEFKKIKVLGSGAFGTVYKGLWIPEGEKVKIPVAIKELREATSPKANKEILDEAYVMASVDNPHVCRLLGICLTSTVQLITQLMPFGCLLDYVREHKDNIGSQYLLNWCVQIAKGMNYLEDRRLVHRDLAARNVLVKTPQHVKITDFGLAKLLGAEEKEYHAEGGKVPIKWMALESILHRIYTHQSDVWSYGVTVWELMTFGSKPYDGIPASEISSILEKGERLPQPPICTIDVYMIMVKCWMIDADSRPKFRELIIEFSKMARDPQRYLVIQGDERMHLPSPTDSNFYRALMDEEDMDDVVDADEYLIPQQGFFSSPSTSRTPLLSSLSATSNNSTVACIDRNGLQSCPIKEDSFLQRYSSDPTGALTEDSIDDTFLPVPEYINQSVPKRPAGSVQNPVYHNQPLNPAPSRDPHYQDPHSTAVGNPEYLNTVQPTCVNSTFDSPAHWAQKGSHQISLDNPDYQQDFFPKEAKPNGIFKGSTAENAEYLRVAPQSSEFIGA

Compound | IC50
COc1cc2ncnc(Nc3ccc(F)c(Cl)c3)c2cc1OCCCN1CCc2noc(C)c2C1 [Example 24, N-(3-chloro-4-fluorophenyl)-7-methoxy-6-(3-(3-methyl-6,7-dihydroisoxazolo[4,3-c]pyridin-5(4H)-yl)propoxy)quinazolin-4-amine] | 0.001 to 0.1 nM
COc1cc2ncnc(Nc3ccc(F)c(Cl)c3)c2cc1OCCCN1CCc2c(c(C)nn2C)C1 [Example 38, N-(3-chloro-4-fluorophenyl)-6-(3-(1,3-dimethyl-6,7-dihydro-1H-pyrazolo[4,3-c]pyridin-5(4H)-yl)propoxy)-7-methoxyquinazolin-4-amine] | 0.101 to 1 nM
COc1cc2ncnc(Nc3ccc(F)c(Cl)c3)c2cc1OCCCN1C[C@@H]2OCCO[C@H]2C1 [Example 40, N-(3-chloro-4-fluorophenyl)-7-methoxy-6-(3-((4aS,7aS)-tetrahydro-2H-[1,4]dioxino[2,3-c]pyrrol-6(3H)-yl)propoxy)quinazolin-4-amine] | 0.001 to 0.1 nM
COc1cc2ncnc(Nc3ccc(F)c(Cl)c3)c2cc1OCCCN1CCn2cnnc2C1 [Example 3, N-(3-chloro-4-fluorophenyl)-6-(3-(5,6-dihydro-[1,2,4]triazolo[4,3-a]pyrazin-7(8H)-yl)propoxy)-7-methoxyquinazolin-4-amine] | 0.101 to 1 nM
C#Cc1cc(Nc2ncnc3cc(OC)c(OCCCN4CC5CNCC5C4)cc23)ccc1F (stereo not shown) [Example 44, N-(3-ethynyl-4-fluorophenyl)-6-(3-(hexahydropyrrolo[3,4-c]pyrrol-2(1H)-yl)propoxy)-7-methoxyquinazolin-4-amine] | 0.101 to 1 nM
CCN1CC2CCCN(CCCOc3cc4c(Nc5ccc(F)c(Cl)c5)ncnc4cc3OC)C2C1 (stereo not shown) [Example 29, N-(3-chloro-4-fluorophenyl)-6-(3-(6-ethyloctahydro-1H-pyrrolo[3,4-b]pyridin-1-yl)propoxy)-7-methoxyquinazolin-4-amine] | 0.001 to 0.1 nM
COc1cc2ncnc(Nc3ccc(F)cc3)c2cc1OCCCN1CCn2cnnc2C1 [Example 42, 6-(3-(5,6-dihydro-[1,2,4]triazolo[4,3-a]pyrazin-7(8H)-yl)propoxy)-N-(4-fluorophenyl)-7-methoxyquinazolin-4-amine] | 1 to 10 nM
C#Cc1cc(Nc2ncnc3cc(OC)c(OCCCN4CCn5cnnc5C4)cc23)ccc1F [Example 45, 6-(3-(5,6-dihydro-[1,2,4]triazolo[4,3-a]pyrazin-7(8H)-yl)propoxy)-N-(3-ethynyl-4-fluorophenyl)-7-m ethoxyquinazolin-4-amine] | 0.101 to 1 nM
COc1cc2ncnc(Nc3ccc(F)c(Cl)c3)c2cc1OCCCN1CCCC2CN(C)CC21 (stereo not shown) [Example 27, N-(3-chloro-4-fluorophenyl)-7-methoxy-6-(3-(6-methyloctahydro-1H-pyrrolo[3,4-b]pyridin-1-yl)propoxy)quinazolin-4-amine] | 0.001 to 0.1 nM
COc1cc2ncnc(Nc3ccc(F)c(Cl)c3)c2cc1OCCCN1CC2COCC2C1 (stereo not shown) [Example 22, N-(3-chloro-4-fluorophenyl)-7-methoxy-6-(3-(tetrahydro-1H-furo[3,4-c]pyrrol-5(3H)-yl)propoxy) quinazolin-4-amine] | 0.001 to 0.1 nM
COc1cc2ncnc(Nc3ccc(F)c(Cl)c3)c2cc1OCCCN1CCC2CCN(C)C2C1 (stereo not shown) [Example 18, N-(3-chloro-4-fluorophenyl)-7-methoxy-6-(3-(1-methylhexahydro-1H-pyrrolo[2,3-c]pyridin-6(2H)-yl)propoxy)quinazolin-4-amine] | 0.001 to 0.1 nM
COc1cc2ncnc(Nc3ccc(F)c(Cl)c3)c2cc1OCCCN1CC2CCOC(=O)C2C1 (stereo not shown) [Example 20, 2-(3-((4-((3-chloro-4-fluorophenyl)amino)-7-methoxyquinazolin-6-yl)oxy)propyl)hexahydropyrano[3,4-c]pyrrol-4(2H)-one] | 0.001 to 0.1 nM
COc1cc2ncnc(Nc3ccc(F)c(Cl)c3)c2cc1OCCCN1CCCC2OCCCC21 (stereo not shown) [Example 31, N-(3-chloro-4-fluorophenyl)-6-(3-(hexahydro-2H-pyrano[3,2-b]pyridin-5(3H)-yl)propoxy)-7-methoxyquinazolin-4-amine] | 0.001 to 0.1 nM
